Data set [1] is filed under the species Mus musculus. In words: Evaluated for the percent inhibition uptake of radiolabeled thymidine as a measure of inhibition of cell division against the SV40-transformed 3T3 cells after 4 hr at the concentration of 1x10E4M. The class given is functional, NIH3T3.
The species entered for data set [2] is Mus musculus. As to the kind of experiment: Evaluated for the percent inhibition uptake of radiolabeled thymidine as a measure of inhibition of cell division against the SV40-transformed 3T3 cells after 4 hr at the concentration of 3x10E4M. The class given is functional, NIH3T3.
The species entered for data set [3] is Mus musculus. In words: Evaluated for the percent inhibition uptake of radiolabeled thymidine as a measure of inhibition of cell division against the SV40-transformed 3T3 cells after 4 hr at the concentration of 6. The class given is functional, NIH3T3.
Data set [4] is filed under the species Mus musculus. In words: Toxicity was evaluated for the compound at a concentration of 0.257 mM against […] Mastocytoma. In kind it is functional.
For data set [5], the species on record is Mus musculus. As to the kind of experiment: Toxicity toward P-815 Mastocytoma cells after 5 hr was determined as percent of [51Cr]- release from labeled cells as a measure of cell death. at a concentration of 0.257 mM. (expt III). The class given is functional.
For data set [6], the species on record is Mus musculus. In words: Cytotoxicity was determined for the compound against mouse peritoneal macrophages (MPM) at a concentration of 0.165 mM. In kind it is functional.
Data set [7] is described as follows: Compound treated with MPM cell homogenate at pH 7 to isolate compound 4 (ng). In kind it is ADME, cell-based.
Data set [8] can be described thus: Compound in absence of MPM cell homogenate at pH 3 to isolate compound 4 (ng). In kind it is ADME, cell-based.
Data set [9] in a line: Compound treated with MPM cell homogenate at pH 7.5 to isolate compound 4 (ng). In kind it is ADME, cell-based.
In data set [10] the test system is MPM. As to the kind of experiment: Compound in presence of MPM cells and in absence of inactivator at pH 8 to isolate compound 4 (ng). In kind it is cell-based.
The nature of data set [11]: Compound treated in absence of MPM cell homogenate at pH 4.5 to isolate compound 4 (ng). In kind it is ADME, cell-based.
Data set [12] concerns MPM. As to the kind of experiment: Compound in presence of MPM cells and in absence of inactivator at pH 3 to isolate compound 4 (ng). The class given is cell-based.
Data set [13] is filed under the species Mus musculus. As to the kind of experiment: Cytotoxicity was determined against mouse peritoneal macrophages (MPM) and the percent of LDH released after 24 hr was determined as a measure of cell death at a concentration of 0.375 mM (expt I). In kind it is functional. (In general: LDH leaks from cells whose membrane has failed.)
Data set [14] concerns MPM. In words: Compound along with 3 mM leupeptin in presence of MPM cells at pH 3 to isolate compound 4 (ng). The class given is cell-based.
The nature of data set [15]: Compound treated with MPM cell homogenate at pH 3.5 to isolate compound 4 (ng). In kind it is ADME, cell-based.
A short description of data set [16]: Compound treated with MPM cell homogenate at pH 4.5 to isolate compound 4 (ng). The class given is ADME, cell-based.
The species named for data set [17] is Mus musculus. As to the kind of experiment: Cytotoxicity was determined against mouse peritoneal macrophages (MPM) and the percent of LDH released after 24 hr was determined as a measure of cell death at a concentration of 0.375 mM (expt II). The class given is functional.
The species named for data set [18] is Mus musculus. As to the kind of experiment: Toxicity was evaluated for the compound at a concentration of 0.331 mM against […] Mastocytoma. In kind it is functional.
Data set [19] in a line: Compound treated with MPM cell homogenate at pH 5.5 to isolate compound 4 (ng). The class given is ADME, cell-based.
Data set [20] in a line: Compound treated with MPM cell homogenate at pH 4 to isolate compound 4 (ng). In kind it is ADME, cell-based.
Data set [21] in a line: Compound treated with MPM cell homogenate at pH 6 to isolate compound 4 (ng). The class given is ADME, cell-based.
Data set [22] concerns MPM. As to the kind of experiment: Compound (steam-treated 10 min) in presence of MPM cells at pH 3 to isolate compound 4 (ng); No data. The class given is cell-based.
A short description of data set [23]: Compound in absence of MPM cell homogenate at pH 4.5 to isolate compound 4 (ng). The class given is ADME, cell-based.
Data set [24] concerns MPM. As to the kind of experiment: Compound along with 4 mM pepstatin in presence of MPM cells at pH 3 to isolate compound 4 (ng). In kind it is cell-based.
A short description of data set [25]: Compound treated with MPM cell homogenate at pH 8 to isolate compound 4 (ng). In kind it is ADME, cell-based.
Data set [26] concerns MPM. In words: Compound in absence of MPM cells and in absence of inactivator at pH 8 to isolate compound 4 (ng). In kind it is cell-based.
The species entered for data set [27] is Mus musculus. In words: Appearance of mouse peritoneal macrophages after 3h of treatment with compound at a concentration of 0.375 mM; vacuoles, rounded. The class given is functional, organism-based.
The nature of data set [28]: Compound treated with MPM cell homogenate at pH 5 to isolate compound 4 (ng). The class given is ADME, cell-based.
Data set [29] can be described thus: Compound treated with MPM cell homogenate at pH 6.5 to isolate compound 4 (ng). In kind it is ADME, cell-based.
Data set [30] is filed under the species Mus musculus. As to the kind of experiment: Toxicity toward P-815 Mastocytoma cells after 5 hr was determined as percent of [51Cr]- release from labeled cells as a measure of cell death. at a concentration of 0.331 mM. (expt III). In kind it is functional.
In data set [31] the test system is MPM. As to the kind of experiment: Compound along with 10 uM HgCl2 in presence of MPM cells at pH 3 to isolate compound 4 (ng). In kind it is cell-based.
Data set [32] is described as follows: Compound treated with MPM cell homogenate at pH 3 to isolate compound 4 (ng). The class given is ADME, cell-based.
Data set [33] can be described thus: Compound in absence of MPM cell homogenate at pH 7 to isolate compound 4 (ng). The class given is ADME, cell-based.
Data set [34] is filed under the species Mus musculus. As to the kind of experiment: Toxicity toward P-815 Mastocytoma cells after 5 hr was determined as percent of [51Cr]- release from labeled cells as a measure of cell death. at a concentration of 0.281 mM. (expt IV). In kind it is functional.

Structures are written as SMILES. “And” between values parts separate entries of the source, which are not always exact repeats. Equal entries are not always repeated. Where a SMILES comes first, the peptide text is derived from it. The star is where a group is joined. Cbz = O=C(OCc1ccccc1)*

Regarding `NCC(=O)N[C@H](Cc1ccccc1)C(=O)N(CCCl)CCCl`, the Inhibition uptake was 5% in data set [1], 16% in data set [2] and 60% in [3].

`CCCCCCCCCCCCNC(=O)[C@H](Cc1ccccc1)NC(=O)CN` returned a Toxicity in data set [4] of 100 µg/mL. This molecule had a Cr release in data set [5] of 93%.

On to `CCCCCCCCCCCCN(CC(F)(F)F)C(=O)[C@@H](Cc1ccccc1)NC(=O)CNC(=O)OCc1ccccc1`, for which the Toxicity in [6] worked out at 100 µg/mL; in [18], 200 µg/mL. For the same molecule, the Activity in data set [7] was 34; in data set [8] it was 30; in [9] it was 52; in data set [10] it was 24; in data set [11] it was less than 14; in data set [12], 53. Also, the Activity was 23 in data set [14]; 79 in data set [15]; 92 and 36 in data set [16]; 22 in data set [19]; 49 in [20]; 54 in [21]. The Activity in [22] was 0; in [23], 36; in data set [24], 27; in data set [25], 104; in data set [26] it was 13; in data set [27] it was “vacuoles, rounded”. Further, the Activity in data set [28] turned out to be 30; in data set [29], 28; in data set [31], 28; in data set [32] it was 92; in [33], 20. In addition, the LDH release in data set [13] came out at 73%; in [17], 61%. In data set [30], this molecule registered a Cr release of 22%.

Take `CCCCCCCCCCCCN(CC(F)(F)F)C(=O)[C@H](Cc1ccccc1)NC(=O)CNC(=O)OCc1ccccc1`: the Activity in data set [8] is 44; in [10], 20; in [16], less than 20; in data set [23] it was 29; in data set [33] it was 28. Moreover, the Toxicity in [18] is 200 µg/mL. The Cr release in [30] came out at 11%.

In turn, `O=C(CNC(=O)OCc1ccccc1)N[C@@H](Cc1ccccc1)C(=O)O` (Cbz-Gly-Phe-OH) gave a Cr release in data set [34] of 16%.

`CC(C)(C)OC(=O)NCC(=O)N[C@H](Cc1ccccc1)C(=O)N(CCCl)CCCl`: the values for the Inhibition uptake in data set [1], in [2] and in [3] were -4%, 33% and 52%, respectively.
